The source of these data is PMC10810264 (Microchemical journal : devoted to the application of …, 2023).

Values after ≈ are worked out from the molar mass of the structure shown.

In one experiment the test system is anti-GEN scFv-AP fusion protein. Kind of experiment: direct competitive chemiluminescent enzyme immunoassay. Type of experiment: binding, murine. The following applies: dcCLEIA; CR=[IC50(gentamicin)/IC50(analyte)]×100%.
The compound `CC1(C)S[C@@H]2[C@H](NC(=O)[C@H](N)c3ccccc3)C(=O)N2[C@H]1C(=O)O` [Ampicillin] gave a Cross-reactivity of less than 0.10%.
Still for that read-out and setting: next, `O=C(N[C@H](CO)[C@H](O)c1ccc([N+](=O)[O-])cc1)C(Cl)Cl` [Chloramphenicol]: less than 0.10%; `CNC(C)C1CCC(N)C(OC2C(N)CC(N)C(OC3OCC(C)(O)C(NC)C3O)C2O)O1` (stereo not shown) [Gentamicin]: 100%.
The same measure, in the same setting: next, `[H]/N=C(/N)N[C@H]1[C@H](O)[C@@H](O)[C@H](O[C@@H]2O[C@@H](C)[C@](O)(C=O)[C@H]2O[C@@H]2O[C@@H](CO)[C@H](O)[C@@H](O)[C@@H]2NC)[C@@H](N/C(N)=N\[H])[C@@H]1O` [Streptomycin]: less than 0.10%; `NC[C@H]1O[C@H](O[C@H]2[C@H](O)[C@@H](O[C@H]3O[C@H](CO)[C@@H](O)[C@H](N)[C@H]3O)[C@H](N)C[C@@H]2N)[C@H](O)[C@@H](O)[C@@H]1O` [kanamycin]: less than 0.10%; Neomycin: less than 0.10%.

Another experiment has the same test system. Kind of experiment: direct competitive ELISA. To be noted: dcELISA, AP substrate p-nitrophenyl phosphate, OD 405 nm. It counts as binding, murine.
Consider `CNC(C)C1CCC(N)C(OC2C(N)CC(N)C(OC3OCC(C)(O)C(NC)C3O)C2O)O1` (stereo not shown) [Gentamicin], for which the IC50 is on record as 7.693 ng/mL (≈ 0.0161 µM).
